Laboratory results reported in patent US20160296529A1, “AMINOTRIAZOLOPYRIDINE FOR USE IN THE TREATMENT OF INFLAMMATION, AND PHARMACEUTICAL COMPOSITIONS THEREOF” (priority 2012, published 2016).

Key:
[1] = Single dose pharmacokinetics in animals, minipig; assay type: in vivo, Göttingen minipigs; details: after Formula II 30 mg/kg oral; for AUC: male, Göttingen, plasma, read-out: exposure (expressed as AUC)
Procedure: (§1) Pharmacokinetic studies were performed in various animal species dosed with the compound according to Formula II to determine the exposure to the compound according to Formula I as well as its apparent terminal half life (T1/2), when possible.
Sprague-Dawley rats (male, 200-250 g), CD1 mice (male, 25-30 g), Beagle dogs (male, 9-10 kg), Göttingen minipigs (male, 10-15 kg) and New Zealand White rabbits (male, 3-5 kg) were acclimatized for at least 7 days before treatment and were kept on a 12 hr light/dark cycle (07 h00-19 h00).
Temperature was maintained at approximately 22° C., and food and water were provided ad libitum.
The compound according to Formula II was formulated in 0.5% methylcellulose and dosed orally to 3 animals (or 3 mouse/time points) as a single esophageal gavage at dose ranging from 15 to 45 mg/kg under a dosing volume of 5 or 10 mL/kg.
(§2) Blood samples were collected over a 24-h period via the jugular vein (dog, minipig), ear blood vessel (rabbit), cardiac puncture (mouse) or retro-orbital sinus (rat) with lithium heparin as anti-coagulant. Whole blood samples were centrifuged and the resulting plasma samples were stored at −20° C. pending analysis.
(§3) Plasma concentrations of the compound according to Formula I and of the compound according to Formula II were determined by an LC-MS/MS method with a limit of quantification ≦10.0 ng/mL for both Formula I and Formula II for all species.
(§4) Pharmacokinetic parameters were calculated using a statistical analysis package (WinNonLin (Pharsight, Sunnyvale, Calif.: CA 94086, USA).

hepatocytes of dog = assay: In vitro metabolism study in hepatocytes, dog; assay type: in vitro ADME; details: dog hepatocyte suspension, 24 h incubation of 100 μM [14C]-Formula II
Procedure: Hepatocyte stability (Concentrations of the compound according to Formula II and its main metabolites (as % of total radioactivity) after 24 h incubation of 100 μM [^14C]-Compound according to Formula II in hepatocyte suspension of different species)

[2] = Target inhibition: circulating levels in healthy volunteers as multiples of whole blood assay IC50; assay type: in vivo, human
Procedure: The compound according to Formula II was dosed daily in healthy volunteers at 200 mg QD and 100 mg BID.
The resulting levels of Formula II and Formula I were then measured and plotted (FIG. 5) as multiples of their respective IC50 as determined by the Whole Blood assay described above in Example 3.4.

[3] = Single dose pharmacokinetics in animals, rabbit; assay type: in vivo, New Zealand White rabbits
Procedure: as §1
Sprague-Dawley rats (male, 200-250 g), CD1 mice (male, 25-30 g), Beagle dogs (male, 9-10 kg), Göttingen minipigs (male, […]) were acclimatized for at least 7 days before treatment and were kept on a 12 hr light/dark cycle (07 h00-19 h00).
Temperature was maintained at approximately 22° C., and food and water were provided ad libitum. […]
as §2, §3, §4

[4] = Formula II at 100 mg BID, time point 0 h
[5] = Formula II at 100 mg BID, time point 0.5 h
[6] = Formula II at 100 mg BID, time point 1 h
[7] = Formula II at 100 mg BID, time point 2 h
[8] = Formula II at 100 mg BID, time point 3 h
[9] = Formula II at 100 mg BID, time point 5 h
[10] = Formula II at 100 mg BID, time point 8 h
[11] = Formula II at 100 mg BID, time point 12 h
[12] = Formula II at 100 mg BID, time point 12.5 h
[13] = Formula II at 100 mg BID, time point 13 h
[14] = Formula II at 100 mg BID, time point 14 h
[15] = Formula II at 100 mg BID, time point 15 h
[16] = Formula II at 100 mg BID, time point 17 h
[17] = Formula II at 100 mg BID, time point 20 h
[18] = Formula II at 100 mg BID, time point 24 h
[19] = Formula II at 200 mg QD, time point 0 h
[20] = Formula II at 200 mg QD, time point 0.5 h
[21] = Formula II at 200 mg QD, time point 1 h
[22] = Formula II at 200 mg QD, time point 2 h
[23] = Formula II at 200 mg QD, time point 3 h
[24] = Formula II at 200 mg QD, time point 5 h
[25] = Formula II at 200 mg QD, time point 8 h
[26] = Formula II at 200 mg QD, time point 24 h
[27] = male, New Zealand White, plasma, after Formula II 20 mg/kg oral, read-out: exposure (expressed as AUC)

AUC [1] | In vitro metabolic profile of Formula II (as % of total radioactivity) (hepatocytes of dog) | Ratio [blood circulating dose]/[circulating dose at IC50 quantity] [2, 4] | Ratio [blood circulating dose]/[circulating dose at IC50 quantity] [2, 5] | Ratio [blood circulating dose]/[circulating dose at IC50 quantity] [2, 6] | Ratio [blood circulating dose]/[circulating dose at IC50 quantity] [2, 7] | Ratio [blood circulating dose]/[circulating dose at IC50 quantity] [2, 8] | Ratio [blood circulating dose]/[circulating dose at IC50 quantity] [2, 9] | Ratio [blood circulating dose]/[circulating dose at IC50 quantity] [2, 10] | Ratio [blood circulating dose]/[circulating dose at IC50 quantity] [2, 11] | Ratio [blood circulating dose]/[circulating dose at IC50 quantity] [2, 12] | Ratio [blood circulating dose]/[circulating dose at IC50 quantity] [2, 13] | Ratio [blood circulating dose]/[circulating dose at IC50 quantity] [2, 14] | Ratio [blood circulating dose]/[circulating dose at IC50 quantity] [2, 15] | Ratio [blood circulating dose]/[circulating dose at IC50 quantity] [2, 16] | Ratio [blood circulating dose]/[circulating dose at IC50 quantity] [2, 17] | Ratio [blood circulating dose]/[circulating dose at IC50 quantity] [2, 18] | Ratio [blood circulating dose]/[circulating dose at IC50 quantity] [2, 19] | Ratio [blood circulating dose]/[circulating dose at IC50 quantity] [2, 20] | Ratio [blood circulating dose]/[circulating dose at IC50 quantity] [2, 21] | Structure (SMILES) | also measured
16.7 µg·h/mL | 5.7% | 0.97 | 0.93 | 0.88 | 0.97 | 1.00 | 1.13 | 0.96 | 0.86 | 0.93 | 0.88 | 0.97 | 1.00 | 1.13 | 0.96 | 0.86 | 0.69 | 0.65 | 0.69 | Nc1nc2cccc(-c3ccc(CN4CCS(=O)(=O)CC4)cc3)n2n1 [Formula I, 5-[4-(1,1-Dioxothiomorpholin-4-ylmethyl)-phenyl]-[1,2,4]triazolo[1,5-a]pyridin-2-ylamine] | Ratio I/II of exposure (AUC Formula I : AUC Formula II) [1]: 0.88; Ratio [blood circulating dose]/[circulating dose at IC50 quantity] [2, 22]: 0.84; Ratio [blood circulating dose]/[circulating dose at IC50 quantity] [2, 23]: 0.96; Ratio [blood circulating dose]/[circulating dose at IC50 quantity] [2, 24]: 1.00; Ratio [blood circulating dose]/[circulating dose at IC50 quantity] [2, 25]: 0.93; Ratio [blood circulating dose]/[circulating dose at IC50 quantity] [2, 26]: 0.84; AUC ([3]; New Zealand White, plasma, female, Formula I 125 mg/kg single oral dose, read-out: AUC): 777 µg·h/mL; AUC ([3]; New Zealand White, plasma, female, Formula I 250 mg/kg single oral dose, read-out: AUC): 1030 µg·h/mL; Ratio I/II of exposure (AUC Formula I : AUC Formula II) ([3]; after Formula II 20 mg/kg oral): 0.38; AUC [3, 27]: 10 µg·h/mL; half-life ([3]; male, New Zealand White, plasma, oral, upon administration of Formula II, read-out: apparent terminal elimination half-life (converted)): 4.6 h
19.1 µg·h/mL | at least 80% | 0.09 | 0.12 | 0.48 | 1.28 | 1.71 | 0.88 | 0.26 | 0.09 | 0.12 | 0.48 | 1.28 | 1.71 | 0.88 | 0.26 | 0.09 | 0.02 | 0.46 | 3.14 | O=C(Nc1nc2cccc(-c3ccc(CN4CCS(=O)(=O)CC4)cc3)n2n1)C1CC1 [Formula II, Cyclopropanecarboxylic acid {5-[4-(1,1-dioxo-thiomorpholin-4-ylmethyl)-phenyl]-[1,2,4]triazolo[1,5-a]pyridin-2-yl}-amide] | In vitro metabolic profile of Formula II (as % of total radioactivity) (hepatocytes of dog; listed as drawing 10): 93%; Ratio [blood circulating dose]/[circulating dose at IC50 quantity] [2, 22]: 3.88; Ratio [blood circulating dose]/[circulating dose at IC50 quantity] [2, 23]: 3.16; Ratio [blood circulating dose]/[circulating dose at IC50 quantity] [2, 24]: 1.31; Ratio [blood circulating dose]/[circulating dose at IC50 quantity] [2, 25]: 0.36; Ratio [blood circulating dose]/[circulating dose at IC50 quantity] [2, 26]: 0.11; AUC [3, 27]: 26 µg·h/mL
